# According to PMC10033279 (The Journal of Biological Chemistry, 2023):
# Columns and labels:
# [1] = biological target: T1, NADH:quinone oxidoreductase (NQO), PA1024 (Pseudomonas aeruginosa, UniProt Q9I4V0); assay: steady-state NADH oxidation at […] nm, ping-pong global fit; assay type: biochemical; conditions: varied NADH; 20 mM KPi, 200 mM NaCl, pH 7.0, 25 °C; read-out: KBQ
# T1 construct: full-length gene PA1024 in pET20b(+), expressed in E. coli Rosetta(DE3)pLysS, purified; EC 1.6.5.9
# [2] = biological target: NADH:quinone oxidoreductase (NQO), PA1024 (Pseudomonas aeruginosa, UniProt Q9I4V0, Q80E); conditions: read-out: KBQ; varied NADH; 20 mM KPi, 200 mM NaCl, pH 7.0, 25 °C
# [3] = biological target: NADH:quinone oxidoreductase (NQO), PA1024 (Pseudomonas aeruginosa, UniProt Q9I4V0, Q80G); conditions: read-out: KBQ; varied NADH; 20 mM KPi, 200 mM NaCl, pH 7.0, 25 °C
# [4] = biological target: T1, NADH:quinone oxidoreductase (NQO), PA1024; assay: steady-state NADH oxidation at […] nm, Michaelis-Menten fit; assay type: biochemical; conditions: 100 μM NADH fixed (not saturating; apparent; unreliable); 20 mM KPi, 200 mM NaCl, pH 7.0, 25 °C
# [5] = biological target: T1, NADH:quinone oxidoreductase (NQO), PA1024; assay: UV-visible absorption, FMN extraction by heat denaturation; assay type: binding; conditions: 10 mM Tris-Cl, 200 mM NaCl, 10% glycerol, pH 8.0, 25 °C; stoichiometry of co-purified FMN
# [6] = biological target: T1, NADH:quinone oxidoreductase (NQO), PA1024; assay: anaerobic stopped-flow flavin reduction at […] nm; assay type: biochemical; conditions: 20 mM KPi, 200 mM NaCl, pH 7.0, 25 °C, unreliable (upper-bound estimate, saturated at lowest NADH)
# [7] = biological target: T1, NADH:quinone oxidoreductase (NQO), PA1024; assay: anaerobic flavin reduction, absorption spectra; assay type: biochemical; conditions: 500 μM NADPH, pH 7, 25 °C, poor substrate
# T1 sequence (Q9I4V0 whole entry): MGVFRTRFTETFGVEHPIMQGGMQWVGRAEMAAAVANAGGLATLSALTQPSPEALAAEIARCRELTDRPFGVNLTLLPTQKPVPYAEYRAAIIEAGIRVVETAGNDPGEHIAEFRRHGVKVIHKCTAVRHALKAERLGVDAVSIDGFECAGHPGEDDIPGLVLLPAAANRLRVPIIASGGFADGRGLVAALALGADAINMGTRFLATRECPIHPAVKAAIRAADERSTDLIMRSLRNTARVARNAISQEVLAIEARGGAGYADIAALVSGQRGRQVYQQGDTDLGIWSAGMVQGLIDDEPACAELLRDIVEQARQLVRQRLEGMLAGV
# Sequence of NADH:quinone oxidoreductase (NQO), PA1024 (Pseudomonas aeruginosa, UniProt Q9I4V0, Q80G) (Q9I4V0 whole entry Q80G): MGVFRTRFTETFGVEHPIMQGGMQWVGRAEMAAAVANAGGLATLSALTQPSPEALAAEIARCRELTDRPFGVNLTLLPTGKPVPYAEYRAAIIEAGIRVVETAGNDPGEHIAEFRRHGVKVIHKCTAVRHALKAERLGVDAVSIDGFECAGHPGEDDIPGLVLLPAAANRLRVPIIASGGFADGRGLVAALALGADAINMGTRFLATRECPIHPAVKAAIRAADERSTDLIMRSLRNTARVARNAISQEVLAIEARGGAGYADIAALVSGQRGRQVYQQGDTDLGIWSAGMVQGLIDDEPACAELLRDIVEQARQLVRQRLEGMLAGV
# Sequence of NADH:quinone oxidoreductase (NQO), PA1024 (Pseudomonas aeruginosa, UniProt Q9I4V0, Q80E) (Q9I4V0 whole entry Q80E): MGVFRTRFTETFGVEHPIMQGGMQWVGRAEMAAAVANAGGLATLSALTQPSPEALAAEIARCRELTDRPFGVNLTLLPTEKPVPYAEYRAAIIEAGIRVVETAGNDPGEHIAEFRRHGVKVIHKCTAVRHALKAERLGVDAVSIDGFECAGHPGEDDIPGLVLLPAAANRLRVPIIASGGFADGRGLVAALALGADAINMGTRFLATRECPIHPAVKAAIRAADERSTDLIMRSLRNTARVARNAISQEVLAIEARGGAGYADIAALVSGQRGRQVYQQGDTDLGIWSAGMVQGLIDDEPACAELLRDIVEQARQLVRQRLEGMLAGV
structure (smiles),measurement,setting,value
"O=C1C=CC(=O)C=C1 [1,4-benzoquinone]",Km,[1],30 ± 1 µM
same,Km,[2],15 ± 1 µM
same,Km,[3],20 ± 1 µM
"COC1=C(OC)C(=O)C(C)=CC1=O [2,3-dimethoxy-5-methyl-1,4-benzoquinone]",^app(Km),[4],60 ± 1 µM
"CC1=CC(=O)C=CC1=O [2-methyl-1,4-benzoquinone]",^app(Km),[4],96 ± 1 µM
"O=C1C=CC(=O)c2c(O)cccc21 [5-hydroxy-1,4-naphthoquinone]",^app(Km),[4],21 ± 1 µM
Cc1cc2nc3c(=O)[nH]c(=O)nc-3n(C[C@H](O)[C@H](O)[C@H](O)COP(=O)(O)O)c2cc1C [FMN],FMN/Protein,[5],0.40
NC(=O)C1=CN([C@@H]2O[C@H](COP(=O)(O)OP(=O)(O)OC[C@H]3O[C@@H](n4cnc5c(N)ncnc54)[C@H](O)[C@@H]3O)[C@@H](O)[C@H]2O)C=CC1 [NADH],Kd (μM),[6],<= ≤ 3 μM
NC(=O)C1=CN([C@@H]2O[C@H](COP(=O)(O)OP(=O)(O)OC[C@H]3O[C@@H](n4cnc5c(N)ncnc54)[C@H](OP(=O)(O)O)[C@@H]3O)[C@@H](O)[C@H]2O)C=CC1 [NADPH],% flavin reduction over 10 min at 500 μM,[7],~ 10%
